{"source": "patent US20250032488A1", "about": "“METHODS OF TREATMENT USING LOU064” (NOVARTIS AG, priority 2021, published 2025)", "key": {"subjects with CSU": {"test_system": "subjects with CSU", "test": "52-week open label extension study in CSU: safety", "experimental": "In a 52-week open label extension study to evaluate the long-term safety and tolerability of LOU064 in eligible subjects with CSU who participated in the Phase 2b study the dose used was 100 mg b.i.d."}, "PBMC-derived mast cells": {"test_system": "PBMC-derived mast cells", "test": "FcER-induced degranulation of PBMC-derived mast cells", "assay_type": "cell-based", "details": "Homo sapiens, Mast cell; n=7 donors; read-out: IC50, degranulation of primary human PBMC-derived mast cells (β-tryptase)", "from_the_text": "cells (PBMC)-derived mast cells Rationale and method: Primary human mast cells were derived from CD34-positive progenitor cells isolated from PBMC ((Neuberger, M.S. et al. (1985), Nature 314 (6008), pp 268-70. doi: 10.1038/314268a0). Blood from healthy volunteers was provided under informed consent and collected through the Novartis Tissue Donor Program in accordance with the Swiss Human Research Act and approval of the responsible ethic committee (Ethikkommission Nordwest-und Zentralschweiz). Briefly, CD34-positive cells were isolated from peripheral blood by positive selection and cultured in medium containing SCF, IL-6 and IL-3. After a 6 week differentiation culture, mast cells were harvested and characterized phenotypically for expression of c-Kit (CD117) and FcERI. The degranulation is based on NIP haptenized BSA and the NIP-specific chimeric IgE antibody JW8 (described in RD-2013-00412). The mast cells were sensitized with JW8 IgE antibody and then incubated with serial compound dilutions for 30 minutes at 37° C. Then degranulation was triggered by adding haptenized NIP-BSA to crosslink the FcER. After one hour, supernatants were collected and analyzed for β-tryptase levels."}, "patients with CSU [1]": {"test_system": "patients with CSU", "test": "Phase 2b core study in CSU: safety", "assay_type": "in vivo, human"}, "healthy atopic subjects": {"test_system": "healthy atopic subjects", "details": "doses of greater than or equal to 100 mg qd, MAD, across all tests; cited from earlier work"}, "BTK": {"biological_target": "T1, BTK (Homo sapiens, UniProt Q06187)", "T1 construct": "simulate BTK occupancy in human spleen/tissues across a range of doses; from tissue; host or cells: human spleen/tissues (simulated, not sampled)", "T1 sequence (Q06187 whole entry)": "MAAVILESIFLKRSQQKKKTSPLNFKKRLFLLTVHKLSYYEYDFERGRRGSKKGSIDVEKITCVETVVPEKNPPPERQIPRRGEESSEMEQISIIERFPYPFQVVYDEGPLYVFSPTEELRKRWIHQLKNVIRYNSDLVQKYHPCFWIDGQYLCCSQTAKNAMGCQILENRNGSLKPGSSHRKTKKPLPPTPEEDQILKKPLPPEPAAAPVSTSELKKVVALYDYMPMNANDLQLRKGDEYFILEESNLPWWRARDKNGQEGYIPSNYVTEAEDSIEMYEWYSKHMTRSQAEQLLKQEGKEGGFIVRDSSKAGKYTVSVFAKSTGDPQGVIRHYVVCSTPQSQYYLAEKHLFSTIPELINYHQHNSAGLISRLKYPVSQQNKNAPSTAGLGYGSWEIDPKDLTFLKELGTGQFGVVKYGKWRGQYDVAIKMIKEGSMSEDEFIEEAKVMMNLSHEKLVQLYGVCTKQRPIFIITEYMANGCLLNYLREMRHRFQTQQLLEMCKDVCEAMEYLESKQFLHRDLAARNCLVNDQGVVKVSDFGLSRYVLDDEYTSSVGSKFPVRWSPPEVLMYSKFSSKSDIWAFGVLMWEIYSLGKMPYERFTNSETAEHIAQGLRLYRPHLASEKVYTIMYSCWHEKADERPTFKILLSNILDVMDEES", "test": "Translational PK/PD model: simulated BTK occupancy in human spleen/tissues", "details": "from prediction model of spleen BTK occupancy and HED", "from_the_text": "The purpose of this analysis was to characterize the pharmacokinetics (PK) of LOU064 in healthy volunteers and to use a previously developed, translational target occupancy model to simulate BTK occupancy in human spleen/tissues across a range of doses and dosing regimen (B.I.D vs QD).\nPharmacokinetic data from a Phase I clinical study reported by Kaul et al. (2021) were used in the current analysis, including 102 patients.\nA translational target occupancy model to simulate BTK occupancy in spleen/tissues was developed using a two-step approach.\nIn a first step, a population PK model was established to describe LOU064 PK data from Phase I clinical study reported by Kaul et al. (2021). In a second step, the parameter estimates from the population PK model were used in the BTK occupancy model to predict BTK occupancy in blood and spleen/tissues. Ultimately the BTK occupancy model was used to predict the BTK occupancy in spleen/tissues for different dosing regimens (QD, B.I.D) at different doses."}, "C57BI6 mice": {"test_system": "C57BI6 mice", "test": "Reverse passive Arthus (RPA) reaction in mouse skin: skin swelling", "assay_type": "in vivo", "details": "for Inhibition of the Arthus reaction (skin swelling): dosed 2 hours prior to induction, read at 3 hours", "description": "The effect of a single dose of LOU064 was tested in the acute mouse reverse passive Arthus (RPA) model to assess its effect on a dermal anaphylaxis reaction triggered by IgG immune complexes and mediated by FcGRIIl on mast cell.\nFemale C57BI6 mice (Charles River, France), 8-10 weeks of age, were used. The back of the mice was shaved 24 hours prior to the skin injections. This allowed any potential irritation of the skin to resolve. The Arthus reaction was triggered two hours after compound dosing in the dose-response study or at the timepoints noted in the time-course study. To elicit the Arthus reaction, 50 μl of PBS (control site) or polyclonal rabbit anti-ovalbumin IgG at a concentration of 30 μg in PBS (C6534, Sigma) was injected i.d. into the dorsal skin. The intradermal injection was followed immediately by an i.v. injection of 200 μl ovalbumin (20 mg/kg) in saline (05450 Fluka). Three hours after the injection of the ovalbumin the mice were killed, bled for monitoring of the compound concentration and the spleens removed for BTK occupancy measurement. The thickness of the injected control and anti-ovalbumin IgG skin sites was measured using a digital caliper, and the thickness of the anti-ovalbumin IgG injected sites minus the saline control sites were then calculated for the mice in all treatment groups."}, "patients with CSU [2]": {"test_system": "patients with CSU", "test": "Phase 2b trial in CSU: efficacy", "assay_type": "in vivo, human", "details": "25 mg b.i.d. regimen, 12 weeks", "description": "In a Phase 2b, randomized, double-blind, placebo-controlled trial evaluating the efficacy and safety of remibrutinib over 12 weeks in patients inadequately controlled by H1-antihistamines, with at least moderately active CSU, patients received remibrutinib 10 mg q.d. (once daily), 35 mg q.d., 100 mg q.d., 10 mg b.i.d. (twice daily), 25 mg b.i.d., 100 mg b.i.d., or placebo (1:1:1:1:1:1:1 ratio)."}, "[3]": {"details": "100 mg B.I.D., N = 100, interim cut off 31 Aug. 2020"}, "[4]": {"details": "ES, 100 mg b.i.d., N = 183, median 35.14 wks, listed as remibrutinib"}, "[5]": {"details": "Core study, Any dose, N = 267, listed as remibrutinib"}}, "note": "pIC50: −log10 of the molar value.", "data": [{"smiles": "C=CC(=O)N(C)CCOc1c(N)ncnc1-c1cc(F)cc(NC(=O)c2ccc(C3CC3)cc2F)c1C", "note": "[LOU064, N-(3-(6-amino-5-(2-(N-methylacrylamido)ethoxy)pyrimidin-4-yl)-5-fluoro-2-methylphenyl)-4-cyclopropyl-2-fluorobenzamide]", "values": [{"measurement": "Death", "setting": "subjects with CSU; [3]", "result": 0, "unit": "n"}, {"measurement": "Discontinued study due to an SAE(s)", "setting": "subjects with CSU; [3]", "result": 0, "unit": "n"}, {"measurement": "Discontinued study due to any AE(s)", "setting": "subjects with CSU; [3]", "result": 0, "unit": "n"}, {"measurement": "AE preferred term diarrhea", "setting": "subjects with CSU; 100 mg b.i.d., N = 100 interim", "result": 4, "unit": "%"}, {"measurement": "AE preferred term dizziness", "setting": "subjects with CSU; 100 mg b.i.d., N = 100 interim", "result": 3, "unit": "%"}, {"measurement": "AE preferred term gastroenteritis", "setting": "subjects with CSU; 100 mg b.i.d., N = 100 interim", "result": 3, "unit": "%"}, {"measurement": "AE preferred term headache", "setting": "subjects with CSU; 100 mg b.i.d., N = 100 interim", "result": 6, "unit": "%"}, {"measurement": "Bleeding events or events under SOC Blood and lymphatic system disorders", "setting": "subjects with CSU; 100 mg b.i.d., N = 100 interim", "result": "no bleeding events"}, {"measurement": "SOC Infections and infestations", "setting": "subjects with CSU; 100 mg b.i.d., N = 100 interim", "result": 14, "unit": "%"}, {"measurement": "SOC Skin and subcutaneous tissue disorders", "setting": "subjects with CSU; 100 mg b.i.d., N = 100 interim", "result": 13, "unit": "%"}, {"measurement": "Safety signal", "setting": "subjects with CSU; 100 subjects, median exposure 17.86 weeks", "result": "No safety signal"}, {"measurement": "ECG findings or QT of >500 ms", "setting": "subjects with CSU; ES and CS, any patient", "result": "no significant ECG findings or QT of >500 ms"}, {"measurement": "Deaths", "setting": "subjects with CSU; ES, 100 mg b.i.d., N = 183", "result": "no deaths"}, {"measurement": "Incidence of AESI bleeding", "setting": "subjects with CSU; ES, 100 mg b.i.d., N = 183", "result": 4.4, "unit": "%"}, {"measurement": "Incidence of AESI cytopenias", "setting": "subjects with CSU; ES, 100 mg b.i.d., N = 183", "result": 0.5, "unit": "%"}, {"measurement": "Incidence of AESI infections", "setting": "subjects with CSU; ES, 100 mg b.i.d., N = 183", "result": 23, "unit": "%"}, {"measurement": "Skin and subcutaneous tissue disorders (AEs by primary system organ class)", "setting": "subjects with CSU; ES, 100 mg b.i.d., N = 183, median 35.14 wks", "result": 32, "unit": "n"}, {"measurement": "Discontinued study treatment due to AE(s)", "setting": "subjects with CSU; [4]", "result": 6, "unit": "n"}, {"measurement": "Headache (AEs by PT)", "setting": "subjects with CSU; [4]", "result": 6.6, "unit": "%"}, {"measurement": "Infections and infestations (AEs by primary system organ class)", "setting": "subjects with CSU; [4]", "result": 23.0, "unit": "%"}, {"measurement": "Patients with SAE(s)", "setting": "subjects with CSU; [4]", "result": 4, "unit": "n"}, {"measurement": "Skin and subcutaneous tissue disorders (AEs by primary system organ class)", "setting": "subjects with CSU; [4]", "result": 17.5, "unit": "%"}, {"measurement": "Patients with newly occurring isolated ALT>3xULN", "setting": "subjects with CSU; ES, normalized within 4 weeks", "result": 1, "unit": "patient"}, {"measurement": "pIC50", "setting": "PBMC-derived mast cells", "result": 8.24}, {"measurement": "Patients with newly occurring ALT>5xULN", "setting": "patients with CSU [1]; CS, normalised on treatment", "result": 1, "unit": "patient"}, {"measurement": "Patients with ≥1 AE", "setting": "patients with CSU [1]; Core study, 10 mg b.i.d., N = 44", "result": 21, "unit": "n"}, {"measurement": "Patients with ≥1 AE", "setting": "patients with CSU [1]; Core study, 10 mg q.d., N = 44", "result": 29, "unit": "n"}, {"measurement": "Patients with ≥1 AE", "setting": "patients with CSU [1]; Core study, 25 mg b.i.d., N = 43", "result": 26, "unit": "n"}, {"measurement": "Patients with ≥1 AE", "setting": "patients with CSU [1]; Core study, 35 mg q.d., N = 44", "result": 23, "unit": "n"}, {"measurement": "Patients with ≥1 AE", "setting": "patients with CSU [1]; Core study, 100 mg b.i.d., N = 45", "result": 29, "unit": "n"}, {"measurement": "Patients with ≥1 AE", "setting": "patients with CSU [1]; Core study, 100 mg q.d., N = 47", "result": 27, "unit": "n"}, {"measurement": "Headache (AEs by PT)", "setting": "patients with CSU [1]; [5]", "result": 9.7, "unit": "%"}, {"measurement": "Infections and infestations (AEs by primary system organ class)", "setting": "patients with CSU [1]; [5]", "result": 24.0, "unit": "%"}, {"measurement": "Skin and subcutaneous tissue disorders (AEs by primary system organ class)", "setting": "patients with CSU [1]; [5]", "result": 16.9, "unit": "%"}, {"measurement": "Average decrease in wheal size (SPT)", "setting": "healthy atopic subjects", "result": 3, "unit": "mm"}, {"measurement": "Minimal human effective dose", "setting": "BTK", "result": 25, "unit": "mg b.i.d"}, {"measurement": "Inhibition of skin swelling (time-course study)", "setting": "C57BI6 mice; 30 mg/kg p.o., Arthus reaction elicited 2 hours post dosing", "result": 65.7, "unit": "%"}, {"measurement": "Inhibition of the Arthus reaction (skin swelling)", "setting": "C57BI6 mice; 30 mg/kg single p.o.", "result": 73, "unit": "%"}, {"measurement": "Inhibition of the Arthus reaction (skin swelling)", "setting": "C57BI6 mice; 100 mg/kg single p.o.", "result": 61.2, "unit": "%"}, {"measurement": "Timepoint at which pharmacologic effect in the skin returned to vehicle levels", "setting": "C57BI6 mice; single dose 30 mg/kg p.o.", "result": "≤ 45", "unit": "hours"}, {"measurement": "Efficacy in CSU", "setting": "patients with CSU [2]", "result": "particularly effective"}]}]}
